Data reported in patent US8435949B2, “Pheromones and the luteinizing hormone for inducing proliferation of neural stem cells and neurogenesis” (Stem Cell Therapeutics Corp., priority 2004, dated 2013).
Values joined by “and” are separate entries in the source; they are usually repeats but may differ in a detail not shown here. Equal values may be shown once.

B1: prolactin: additional agent given in combination with LH or hCG (protein, UniProt P01236 29-227, looked up)
Prolactin: LPICPGGAARCQVTLRDLFDRAVVLSHYIHNLSSEMFSEFDKRYTHGRGFITKAINSCHTSSLATPEDKEQAQQMNQKDFLSLIVSILRSWNEPLYHLVTEVRGMQEAPEAILSKAVEIEEQTKRLLEGMELIVSQVHPETKENEIYPVWSGLPSLQMADEESRLSAYYNLLHCLRRDSHKIDNYLKLLKCRIIHNNNC

How the values were obtained:
[1] = test system: neural stem cells; experiment: Neural stem cell culture: secondary sphere formation from dissociated primary spheres (self-renewal); format: cell-based, mice; details: for number of secondary spheres: EGF or EGF plus LH (30 nM), limited density, Exp. #1-#3
Description: Generation and differentiation of spheres from embryonic and adult forebrain were performed as described previously with minor modifications (Reynolds and Weiss, 1992; Reynolds et al., 1992). Briefly, striato-pallidum complexes were removed from mouse embryos at E14 and collected into PBS containing 0.6% glucose, penicillin (50 U/ml), and streptomycin (50 U/ml; both from Life Technologies, Gaithersburg, Md.) and then transferred into the standard culture medium composed of DMEM-F-12 (1:1), glucose (0.6%), glutamine (2 mM), sodium bicarbonate (3 mM), HEPES buffer (5 mM), insulin (25 μg/ml), transferrin (100 μg/ml), progesterone ([…]), putrescine (60 μM), and selenium chloride (30 nM) (all from Sigma, St. Louis, Mo., except glutamine from Life Technologies) For adult neural stem cell cultures, medial and lateral portions of the lateral ventricle subependyma from the adult brain were dissected from both hemispheres, pooled together, subsequently cut into 1 mm^2 fragments, and transferred into the standard culture medium containing 1.33 mg/ml trypsin, 0:67 mg/ml hyaluronidase, and 0.2 mg/ml kynurenic acid (all from Sigma). After 30 min at 37° C., the tissue was transferred to the standard culture medium containing 0.7 mg/ml trypsin inhibitor (Roche Diagnostics, Laval, Quebec, Canada). Tissue pieces were mechanically dissociated with micropipettes. Cells were seeded at various densities into the standard culture medium, which also contained EGF (20 ng/ml human recombinant; Peprotech, Rocky Hill, N.J.). Cells were cultured for 7 days in vitro (DIV) and formed floating cell clusters (spheres). All the mice for culture experiments were killed by cervical dislocation.

[2] = test system: neural stem cells in the SVZ; experiment: Infusion into the lateral ventricle by osmotic pump; BrdU positive (proliferating) cells counted in the SVZ; format: in vivo, mice; details: infusion of combination of LH and prolactin or hCG and prolactin vs LH or hCG; Example 5
Description: To examine the number of progenitor cells in the SVZ after treatment, bromodeoxyuridine (BrdU) injections were used to label these cells. Animals received BrdU injections (120 mg/kg, i.p., dissolved in 0.007% NaOH in phosphate buffer) every 2 hours for a 10 hour period.
The sections were post-fixed with acetone for 30 seconds at room temperature and washed with PBS. For BrdU staining, the tissue was treated with 1M HCl for 22 minutes at 60° C. to denature cellular DNA. Sections were then incubated for 24 hours at room temperature in primary antibody (rat anti-BrdU, 1:50) diluted in 0.3% PBS-T containing 10% NGS, washed with PBS, and then incubated with goat-anti-rat secondary antibodies conjugated to biotin (1:200) for 1 hour at room temperature. After rinsing with ddH2O, sections were mounted with Fluorosave, because staining was visualized with CY3-Streptavodin, and viewed with a Zeiss Axiophot fluorescence microscope.
A one-in-ten series of coronal sections (14 μm) from the rostral tip of the lateral ventricle to caudal most aspect of the ventricles (total 10 sections) were collected. BrdU-positive cells were then counted in the defining ependymal-subependymal layer.
Sixteen 8-week-old CD-1 mice (Charles-River, Laval, Quebec, Canada) were anesthetized with sodium pentobarbital (120 mg/kg, i.p.) and implanted with osmotic pumps (Alzet 1007D; Alza, Palo Alto, Calif.). […]

Row | Molecule | number of secondary spheres ([1]; neural stem cells isolated from female mice) | number of secondary spheres ([1]; neural stem cells isolated from male mice) | proliferation in the SVZ, prolactin added to LH or hCG [2] | self-renewal (the number of secondary spheres from primary spheres) ([1]; prolactin added with LH or hCG in neural stem cell cultures, Example 5)
1 | EGF: EGF, 20 ng/ml human recombinant; Peprotech; comparator culture condition | 172.3 and 157.6 and 197.9 | 144.4 and 225.1 and 168.2 | – | –
2 | B1 | – | – | further enhances the effects of LH or hCG | enhanced
